# Patent publication US20110039783A1, “PEPTIDE HAVING HYPOTENSIVE ACTIVITY” (DAIICHI SANKYO COMPANY LIMITED, priority 2007, published 2011)
# Entries after “also recorded” stand apart in the source; their conditions may differ. Where no end group is shown, it is not given here.
# Experiments:
# [1] = system: blood pressure of awake Sprague-Dawley IGS male rats; test: Hypotensive activity on awake rats; assay type: in vivo, rat; parameters: key to Hypotensive activity (dose/rat) 10 nmol / Hypotensive activity (dose/rat) 30 nmol: Extremely strong activity (+++): A decrease in systolic blood pressure is 30 mmHg or more, and the time required for recovery is 5 minutes or more.; Strong activity (++): A decrease in systolic blood pressure is 20 mmHg or more and less than 30 mmHg, or the time required for recovery is less than 5 minutes.; Activity observed (+): A decrease in systolic blood pressure is less than 20 mmHg.; Activity not observed (−); conditions: for Hypotensive activity (dose/rat) 10 nmol / Hypotensive activity (dose/rat) 30 nmol / Hypotensive activity (dose/rat) 100 nmol: Table 4, intravenous; for Hypotensive activity (dose/rat) 10 nmol: 10 nmol/rat; for Hypotensive activity (dose/rat) 30 nmol: 30 nmol/rat; for Hypotensive activity (dose/rat) 100 nmol: 100 nmol/rat
# Method: 50 mg/kg pentobarbital sodium was intraperitoneally administered to 8- to 10-week-old Sprague-Dawley IGS male rats (Charles River Laboratories Japan, Inc.) for anesthesia. Thereafter, a jugular vein cannula (Silascon 0.5-1.0) was inserted into each rat for use in peptide administration, and a carotid artery cannula (PE50) was inserted into each rat for use in the measurement of blood pressure. At least 3 hours after the surgery, it was confirmed that the rats were awoken from the anesthesia based on general conditions such as the posture, respiration, and the like of the rats. Thereafter, the rats were subjected to the experiment.
# The carotid artery cannula was connected with a pressure transducer (PE23XL; manufactured by Nihon Kohden Corporation), and an apparatus formed by incorporating a blood pressure measurement unit (AP-641G; manufactured by Nihon Kohden Corporation) and an instantaneous heart rate measurement unit (AT-601G; manufactured by Nihon Kohden Corporation) into a multi-purpose preamplifier (RP-6004; manufactured by Nihon Kohden Corporation) was used to record the blood pressure and heart rate of each rat. The blood pressure was calibrated using a mercury manometer included in a stand-type electromanometer (MP-25S; manufactured by Nihon Kohden Corporation). The recording paper was adjusted, such that 20 mm or 40 mm on the recording paper corresponded to 100 mmHg. A solvent in which each peptide had been dissolved was used as a negative control in blood pressure fluctuation.
# Each peptide was dissolved in a concentration of 1 mM in a 5% mannitol solution to prepare a peptide solution. Thereafter, depending on dose, it was diluted with a 5% mannitol solution. In the case of the dose of 10 nmol/rat, a 1 mM peptide solution was 30 times diluted, and 300 μL of the diluted solution was administered. In the case of the dose of 30 nmol/rat, a 1 mM peptide solution was 10 times diluted, and 300 μl of the diluted solution was administered. In the case of the dose of 100 nmol/rat, a 1 mM peptide solution was 3 times diluted, and 300 μL of the diluted solution was administered. Each peptide was intravenously administered via the jugular vein cannula, and the systolic blood pressure, diastolic blood pressure, and heart rate were then measured.
# The definition of the strength of hypotensive activity was the same as that of Example 3.
# [2] = system: blood pressure of anesthetized Sprague-Dawley IGS male rats; test: Hypotensive activity in anesthetized rats, invasive blood pressure measurement after intravenous administration; assay type: in vivo, rat; conditions: for Hypotensive activity (dose/rat) 10 nmol / Hypotensive activity (dose/rat) 30 nmol / Hypotensive activity (dose/rat) 100 nmol: intravenous; for Hypotensive activity (dose/rat) 10 nmol: 10 nmol/rat; for Hypotensive activity (dose/rat) 30 nmol: 30 nmol/rat; for Hypotensive activity (dose/rat) 100 nmol: 100 nmol/rat
# Method: 50 mg/kg pentobarbital sodium was intraperitoneally administered to 8- to 10-week-old Sprague-Dawley IGS male rats (Charles River Laboratories Japan, Inc.) for anesthesia. Thereafter, a tracheal cannula (PE 250), a femoral vein cannula (PE50), and a femoral artery cannula (PESO) were inserted into each rat. The femoral artery cannula was connected with a pressure transducer (PE23XL; manufactured by Nihon Kohden Corporation), and an apparatus formed by incorporating a blood pressure measurement unit (AP-641G; manufactured by Nihon Kohden Corporation) and an instantaneous heart rate measurement unit (AT-601G; manufactured by Nihon Kohden Corporation) into a multi-purpose preamplifier (RP-6004; manufactured by Nihon Kohden Corporation) was used to record the blood pressure and heart rate of each rat. The blood pressure was calibrated using a mercury manometer included in a stand-type electromanometer (MP-25S; manufactured by Nihon Kohden Corporation). The recording paper was adjusted, such that 10 mm or 20 mm on the recording paper corresponded to 100 mmHg.
# Each peptide was dissolved in a concentration of 1 mM or 10 mM in a 0.1% acetic acid solution to prepare a peptide solution. Thereafter, depending on dose, it was diluted with a normal saline containing 0.1% bovine serum albumin (Fr.V). In the case of the dose of 10 nmol/rat, a 1 mM peptide solution was 10 times diluted, and 100 μl of the diluted solution was administered. In the case of the dose of 30 nmol/rat, a 1 mM peptide solution was 10 times diluted, and 300 μL, of the diluted solution was administered. In the case of the dose of 100 nmol/rat, a 10 mM peptide solution was 10 times diluted, and 100 μL of the diluted solution was administered. Each peptide was intravenously administered via the femoral vein cannula, and the systolic blood pressure, diastolic blood pressure, and heart rate were then measured.
# Various HC021 derivative peptides were synthesized in accordance with Example 1, and such peptide was then administered to each rat at a dose of 10 nmol/rat, 30 nmol/rat, or 100 mol/rat by the method described in Example 2. Thereafter, the hypotensive activity of each derivative peptide was measured. […] The strength of such activity was determined using a median of activity in repeated experiments. In addition, in order to make a comparison among the activities of various derivative peptides, the strength of hypotensive activity was defined as follows.
# Strength of Hypotensive Activity
# Extremely strong activity (+++): A decrease in systolic blood pressure is 30 mmHg or more, and the time required for recovery is 5 minutes or more.
# Strong activity (++): A decrease in systolic blood pressure is 20 mmHg or more and less than 30 mmHg, or the time required for recovery is less than 5 minutes.
# Activity observed (+): A decrease in systolic blood pressure is less than 20 mmHg.
# Activity not observed (−)
# Various HC021 peptide sequence-substituted products were synthesized in accordance with Example 1, and their hypotensive activity was then measured according to the method of Example 3.
# [3] = system: anti-[N-Cys]-HC021-004 serum; test: ELISA binding of anti-[N-Cys]-HC021-004 serum to coated peptides; parameters: species or system rabbit; conditions: absorbance at 405 nm, FIG. 3
# Description: Using [N-Cys]-HC021-004 (a peptide prepared by binding cysteine to the amino terminus of HC021-004) as an antigen, a rabbit was immunized with the antigen to produce antiserum (anti-[N-Cys]-HC021-004 serum).
# The ability of this antiserum to bind to peptides having various types of sequences was examined using Protein Detector™ ELISA kit (AP; BluePhos System; manufactured by KPL). Reactions were all carried out at a room temperature. A 96-well immunoplate (maxi-coated; manufactured by Nunc) was coated (amount: 100 uL/well) with each peptide having a different type of sequence (concentration: 1 ng/100 uL) for 1 hour. Then, it was blocked with a 300 uL/well blocking solution for 1 hour. Thereafter, the serially diluted antiserum was added in an amount of 100 uL/well to the immunoplate, followed by reaction for 1 hour. After completion of washing, 500-times diluted Anti-rabbit IgG HRP Ab (manufactured by KPL) was added thereto in an amount of 100 uL/well, followed by reaction for 1 hour. After completion of washing, ABTS (manufactured by KPL) used as a substrate was added thereto in an amount of 100 uL/well. Thirty minutes later, the absorbance at 405 nm was measured.
binding of anti-[N-Cys]-HC021-004 serum to the peptide [3],Substance,hypotensive activity (in words) [1],Hypotensive activity (dose/rat) 10 nmol [1],Hypotensive activity (dose/rat) 30 nmol [1],Hypotensive activity (dose/rat) 100 nmol [1],"Hypotensive activity (dose/rat) 10 nmol ([2]; Table 3, anesthetized rats)","Hypotensive activity (dose/rat) 30 nmol ([2]; Table 3, anesthetized rats)","Hypotensive activity (dose/rat) 100 nmol ([2]; Table 3, anesthetized rats)","Hypotensive activity (dose/rat) 30 nmol ([2]; Table 1, anesthetized rats)","Hypotensive activity (dose/rat) 100 nmol ([2]; Table 1, anesthetized rats)","Hypotensive activity (dose/rat) 30 nmol ([2]; Table 2, anesthetized rats)","Hypotensive activity (dose/rat) 100 nmol ([2]; Table 2, anesthetized rats)","Hypotensive activity (dose/rat) 10 nmol ([2]; Table 1, anesthetized rats)","Hypotensive activity (dose/rat) 10 nmol ([2]; Table 2, anesthetized rats)","dose dependence of hypotensive activity ([2]; anesthetized rats, 10, 30, 100 nmol/rat)","hypotensive activity (in words) ([2]; anesthetized rats, Table 1 and FIG. 1, 10 or 30 nmol/rat, listed as HC021-004)"
,ATLRNEDTWKPLSNPRNRELFFRSLQAYFK-amide [Compound 36],observed to have a hypotensive activity even on the awake rats,−,−,"++ (Strong activity (++): A decrease in systolic blood pressure is 20 mmHg or more and less than 30 mmHg, or the time required for recovery is less than 5 minutes.)",−,−,"+++ (Extremely strong activity (+++): A decrease in systolic blood pressure is 30 mmHg or more, and the time required for recovery is 5 minutes or more.)",,,,,,,,
bound,LQAYFK-amide (LQAYFK-NH2) [Compound 4],,,,,,,,−,−,−,−,,,,
did not bind,LQAYFKGRGLDLGTFPNPFPTNENP [Compound 2],,,,,,,,−,−,,,−,,,
bound,NRDLFFRRLQAYFK-amide (NRDLFFRRLQAYFK-NH2) [Compound 3],observed to have a hypotensive activity even on the awake rats,−,−,"++ (Strong activity (++): A decrease in systolic blood pressure is 20 mmHg or more and less than 30 mmHg, or the time required for recovery is less than 5 minutes.)",+ (Activity observed (+): A decrease in systolic blood pressure is less than 20 mmHg.),"++ (Strong activity (++): A decrease in systolic blood pressure is 20 mmHg or more and less than 30 mmHg, or the time required for recovery is less than 5 minutes.)","+++ (Extremely strong activity (+++): A decrease in systolic blood pressure is 30 mmHg or more, and the time required for recovery is 5 minutes or more.)","++ (Strong activity (++): A decrease in systolic blood pressure is 20 mmHg or more and less than 30 mmHg, or the time required for recovery is less than 5 minutes.)","+++ (Extremely strong activity (+++): A decrease in systolic blood pressure is 30 mmHg or more, and the time required for recovery is 5 minutes or more.)","++ (Strong activity (++): A decrease in systolic blood pressure is 20 mmHg or more and less than 30 mmHg, or the time required for recovery is less than 5 minutes.)","+++ (Extremely strong activity (+++): A decrease in systolic blood pressure is 30 mmHg or more, and the time required for recovery is 5 minutes or more.)",+ (Activity observed (+): A decrease in systolic blood pressure is less than 20 mmHg.),+ (Activity observed (+): A decrease in systolic blood pressure is less than 20 mmHg.),enhanced their hypotensive activity in a dose-dependent manner,observed to have a hypotensive activity; also recorded: act to lower the blood pressure of rats
